Columns and labels:
Experiment in all cases: Bliss excess, mean over the matrix (fraction); higher = more synergy
NY (Osteosarcoma) = test system: NY (Osteosarcoma)
Outline: (§1)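 Bliss excess equals the observed combination effect minus the expected value EA + EB − EA·EB, where EA and EB are the effects of each agent alone. Combination Emax is the second-highest inhibition within the matrix. Inhibition was scaled from CellTiter-Glo 2.0 luminescence, with 0 set by vehicle wells and 1 by blank wells, after 72 hours of two-drug dosing of cells plated in 1536-well plates.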

[1] = test system: NCI-H1666 (Lung Adenocarcinoma)
Outline: as §1

[2] = test system: TT (Thyroid Gland Carcinoma)
Outline: as §1

[3] = test system: COLO-824 (Breast Carcinoma)
Outline: as §1

[4] = test system: VCaP (Prostate Carcinoma)
Outline: as §1

LN-405 (Glioblastoma) = test system: LN-405 (Glioblastoma)
Outline: as §1

IGR-37 (Melanoma) = test system: IGR-37 (Melanoma)
Outline: as §1

[5] = test system: NCI-H1650 (Lung Adenocarcinoma)
Outline: as §1

[6] = test system: HCC1954 (Breast Carcinoma)
Outline: as §1

A498 (Kidney Carcinoma) = test system: A498 (Kidney Carcinoma)
Outline: as §1

[7] = test system: A3-KAW (B-Cell Non-Hodgkin's Lymphoma)
Outline: as §1

GI-ME-N (Neuroblastoma) = test system: GI-ME-N (Neuroblastoma)
Outline: as §1

[8] = test system: JSC-1 (B-Cell Non-Hodgkin's Lymphoma)
Outline: as §1

[9] = test system: PANC-10-05 (Pancreatic Carcinoma)
Outline: as §1

[10] = test system: SK-MES-1 (Squamous Cell Lung Carcinoma)
Outline: as §1

[11] = test system: NCI-H1581 (Non-Small Cell Lung Carcinoma)
Outline: as §1

[12] = test system: CAPAN-2 (Pancreatic Carcinoma)
Outline: as §1

ARH-77 (Non-Cancerous) = test system: ARH-77 (Non-Cancerous)
Outline: as §1

[13] = test system: COR-L311 (Small Cell Lung Carcinoma)
Outline: as §1

[14] = test system: NCI-H64 (Small Cell Lung Carcinoma)
Outline: as §1

Compound	Bliss excess (NY (Osteosarcoma))	Bliss excess [1]	Bliss excess [2]	Bliss excess [3]	Bliss excess [4]	Bliss excess (LN-405 (Glioblastoma))	Bliss excess (IGR-37 (Melanoma))	Bliss excess [5]	Bliss excess [6]	Bliss excess (A498 (Kidney Carcinoma))	Bliss excess [7]	Bliss excess (GI-ME-N (Neuroblastoma))	Bliss excess [8]	Bliss excess [9]	Bliss excess [10]	Bliss excess [11]	Bliss excess [12]	Bliss excess (ARH-77 (Non-Cancerous))	Bliss excess [13]	Bliss excess [14]
CC1(C)CCC(CN2CCN(c3ccc(C(=O)NS(=O)(=O)c4ccc(NCC5CCOCC5)c([N+](=O)[O-])c4)c(Oc4cnc5[nH]ccc5c4)c3)CC2)=C(c2ccc(Cl)cc2)C1 [Venetoclax] + C=CCn1c(=O)c2cnc(Nc3ccc(N4CCN(C)CC4)cc3)nc2n1-c1cccc(C(C)(C)O)n1 [AZD1775] (first compound max 1 µM, partner max 1 µM)	0.0137	-0.0228	0.0252	0.0202	-0.0013	0.0151	0.0267	-0.0298	-0.0366	-0.0031	-0.0298	-0.0689	-0.0281	-0.0488	-0.0237	-0.009	-0.0013	0.025	-0.104	0.0168
Cn1cnc2c(F)c(Nc3ccc(Br)cc3Cl)c(C(=O)NOCCO)cc21 [Selumetinib] + CC(C)n1c(=O)n(C)c2cnc3cc(F)c(-c4ccc(OCCCN5CCCCC5)nc4)cc3c21 [AZD1390] (first compound max 10 µM, 7x7, partner max 0.3 µM)	-0.0149	0.0058	-0.0364	-0.018	-0.0387	-0.0518	-0.0398	-0.0572	-0.0277	-0.0489	0.0678	-0.0399	-0.0477	-0.0783	-0.0487	0.0074	-0.0005	-0.007	-0.0541	-0.0279
COc1cccc2c1C(=O)c1c(O)c3c(c(O)c1C2=O)C[C@@](O)(C(=O)CO)C[C@@H]3O[C@H]1C[C@H](N)[C@H](O)[C@H](C)O1 [Doxorubicin] + Cc1cc2ncnn2cc1Nc1ncc2c(n1)n(C1CCOCC1)c(=O)n2C [AZD7648] (first compound max 1 µM, 7x7, partner max 10 µM)	0.0578	0.0129	0.01	0.0742	0.0275	-0.0125	0.0631	-0.0002	0.0849	0.0163	0.0751	0.0207	0.063	-0.0557	0.0477	0.0529	-0.0419	0.0783	0.0893	0.0063
Cc1cc2ncnn2cc1Nc1ncc2c(n1)n(C1CCOCC1)c(=O)n2C [AZD7648] + CN(C)CCCOc1ccc(-c2ccc3ncc4c(c3c2)n(C2CCOCC2)c(=O)n4C)cn1 [AZD0156] (first compound max 10 µM, 7x7, partner max 1 µM)	-0.0172	-0.0072	-0.0269	-0.0145	0.0154	-0.0215	0.0285	-0.0133	0.0111	-0.0212	0.162	0.0015	0.0412	-0.0059	0.0394	0.0088	-0.0168	-0.049	-0.054	-0.0367
NC1(C(=O)N[C@@H](CCO)c2ccc(Cl)cc2)CCN(c2ncnc3[nH]ccc23)CC1 [Capivasertib] + CCN(CCO)CCCOc1ccc2c(Nc3cc(CC(=O)Nc4cccc(F)c4)[nH]n3)ncnc2c1 [AZD2811] (first compound max 10 µM, 7x7, partner max 1 µM)	-0.0531	-0.0482	0.002	-0.0183	0.0328	-0.0767	0.0123	0.0052	0.0073	-0.0548	-0.0369	-0.0557	0.0082	-0.0943	0.0121	-0.11	-0.0213	-0.0156	-0.0461	0.0427
NC1(C(=O)N[C@@H](CCO)c2ccc(Cl)cc2)CCN(c2ncnc3[nH]ccc23)CC1 [Capivasertib] + CC(C)n1c(=O)n(C)c2cnc3cc(F)c(-c4ccc(OCCCN5CCCCC5)nc4)cc3c21 [AZD1390] (first compound max 10 µM, 7x7, partner max 0.3 µM)	-0.0643	-0.0285	-0.0945	-0.0137	-0.0389	-0.0912	-0.0528	-0.0219	-0.056	-0.0632	0.0088	-0.0993	-0.0888	-0.101	-0.0874	-0.0784	-0.0651	-0.0509	-0.0564	-0.0284
CN(C)CCCOc1ccc(-c2ccc3ncc4c(c3c2)n(C2CCOCC2)c(=O)n4C)cn1 [AZD0156] + CCN(CCO)CCCOc1ccc2c(Nc3cc(CC(=O)Nc4cccc(F)c4)[nH]n3)ncnc2c1 [AZD2811] (first compound max 1 µM, 7x7, partner max 1 µM)	-0.0466	-0.0661	-0.0871	-0.0565	-0.0484	-0.0356	-0.0191	-0.0571	-0.0137	-0.0302	0.121	-0.0488	0.0161	-0.0169	-0.0458	-0.007	-0.0637	0.0216	0.0607	0.0802

— the supplement of paper PMC11061612
